Results on two compounds are retold here after patent US20260256753A1, “USE OF AN OREXIN 2 RECEPTOR AGONIST FOR IMPROVING RESPIRATORY FUNCTION DURING SLEEP” (TAKEDA PHARMACEUTICAL COMPANY LIMITED, priority 2023, published 2026).

One data set concerns the target T1, OX2R (Homo sapiens, UniProt O43614).
T1 sequence (O43614 1-444): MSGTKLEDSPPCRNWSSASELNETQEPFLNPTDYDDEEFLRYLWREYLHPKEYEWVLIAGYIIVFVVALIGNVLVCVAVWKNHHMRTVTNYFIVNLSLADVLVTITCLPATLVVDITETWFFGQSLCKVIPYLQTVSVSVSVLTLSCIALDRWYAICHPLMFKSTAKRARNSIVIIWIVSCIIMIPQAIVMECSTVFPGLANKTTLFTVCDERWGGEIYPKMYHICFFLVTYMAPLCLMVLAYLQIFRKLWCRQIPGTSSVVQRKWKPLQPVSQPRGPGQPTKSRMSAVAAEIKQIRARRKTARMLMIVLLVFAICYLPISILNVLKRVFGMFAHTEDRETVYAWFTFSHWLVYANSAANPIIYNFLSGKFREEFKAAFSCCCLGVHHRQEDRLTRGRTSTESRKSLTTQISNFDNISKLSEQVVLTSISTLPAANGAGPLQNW
As to conditions: OX2R-expressed recombinant cells; cited from earlier work.

The subject of data set [1] is patients with obstructive sleep apnea. The data set is described as follows: Phase 1b crossover study in obstructive sleep apnea: overnight polysomnography (PSG). It counts as in vivo, human. The protocol: A phase 1b, randomized, double-blind, placebo-controlled, 3-period crossover study was conducted to evaluate the safety, tolerability, pharmacodynamic, and pharmacokinetic effects of overnight intravenous COMPOUND A in patients with obstructive sleep apnea (OSA). This study was planned to further evaluate COMPOUND A intravenous administration (IV) in adults with OSA, hypothesizing that nonwake-promoting exposures of COMPOUND A would increase genioglossal muscle tone and increase airway patency via the increasing activity of hypoglossal motoneurons. The main goal of this study was to evaluate the mechanistic potential of OX2R agonism for treatment of OSA using COMPOUND A IV infusion to determine appropriate use in future trials with an oral OX2R agonist.
Participants were male or female, aged 18 to 75 years inclusive, with OSA diagnosed according to the International Classification of Sleep Disorders-3 (ICSD-3) criteria and an apnea hypopnea index (AHI) of 12 to 50 events/hour of sleep. The study consisted of a screening period, 3 treatment periods separated by 2 washout periods, and a follow-up period. A total of 13 participants were enrolled and randomized, of which 12 (92.3%) participants completed all planned doses of study drug and the study.
Eligible participants were randomly assigned (in a double-blinded manner) to 1 of 6 treatment sequences. In each treatment period, participants underwent 3 UACI assessments, a 10-minute evaluation that tested the key biological mechanism that causes OSA (as described by Osman, A. M., et al., 2019, Sleep, 42 (7), 1-10), followed by an overnight polysomnography (PSG). After the first baseline UACI assessment (U1), an IV infusion regimen of COMPOUND A or placebo was administered over approximately 10 hours to achieve specific plasma concentrations to evaluate the effect of COMPOUND A on the UACI and PSG metrics. Target plasma concentrations for the low-dose COMPOUND A IV regimen were 10 ng/mL for the second UACI (U2), 30 ng/ml for the third UACI (U3), and 10 ng/ml for the overnight PSG. Target plasma concentrations for the high-dose COMPOUND A IV regimen were 30 ng/mL for the U2, 90 ng/mL for the U3, and 30 ng/ml for the overnight PSG.
To achieve the target exposures for the UACI assessments (U2 and U3), there was a 20-minute loading period, followed by a 15-minute maintenance period for each. The overnight maintenance dose (approximately 490 minutes) covered the duration of a standard overnight PSG (approximately 8 hours). Doses were selected to cover the potential pharmacologically active concentration range for upper airway collapsibility. The concentration of COMPOUND A in solution was such that participants received the same volume of fluid in the low-dose COMPOUND A regimen, the high-dose COMPOUND A regimen, and placebo, allowing the study to be double-blinded and ensuring all participants were infused with the same volume of fluid.
Following the baseline UACI measurements, IV infusion of placebo or COMPOUND A began. COMPOUND A was tested at 2 concentrations in a stepwise manner, consisting of a 20 minute loading period followed by a 15 minute maintenance period per step. The UACI was tested at each concentration during the maintenance period. A Karolinska Sleepiness Scale (KSS) was administered immediately prior to each UACI testing period to gauge subjective sleepiness. After the U3 test, a KSS was administered, after which the UACI testing equipment (pressure sensors, genioglossus EMG electrodes) was removed with the exception of EEG electrodes that remained in place to record PSG throughout the evening. Prior to lights off, a final KSS was administered. Lights-off occurred, and participants were then allowed to sleep until the following morning (Day 2). Infusion of COMPOUND A/placebo was maintained throughout the night during the nocturnal PSG (nPSG) and ended approximately 8 hours after lights off. Participants were then discharged on Day 2. […]

The nature of data set [2]: Plasma concentration of Compound C after intravenous and oral administration in rats. It counts as in vivo, rat. As to conditions: intravenous 0.3 and 1 mg/kg versus oral 3 and 10 mg/kg, respectively. The procedure: Due to technical feasibility of the experiment, anesthetized rats were used for EMG recording of the diaphragm. Compound C was administered intravenously to anesthetized rats in this experiment. To understand the relationship between the plasma effective concentration of Compound C for arousal and that for activation of the diaphragm, plasma concentration of Compound C after intravenous administration was measured. The maximum plasma concentrations of Compound C after intravenous administration at 0.3 and 1 mg/kg were similar to those after oral administration at 3 and 10 mg/kg, respectively.

[3] abbreviates: 30 ng/ml continuously throughout the sleep period.

Bounds are passed on as bounds.

Take `COC(=O)N1CCC[C@H](NS(C)(=O)=O)[C@@H]1CO[C@H]1CC[C@@H](c2ccccc2)CC1` (relative stereo) [Compound A, methyl(2R,3S)-3-((methylsulfonyl)amino)-2-(((cis-4-phenylcyclohexyl)oxy)methyl) piperidine-1-carboxylate]: the calcium mobilization result on OX2R is “increase calcium mobilization”. Besides, in data set [1] (setting [3]), the REM entry is “significantly decreased”, the “ability to fall asleep” value was “did not cause an inability to fall asleep”, the sleep efficiency entry is reported as “reducing” and the “wake after sleep onset” value is “increasing”. For the same compound, in data set [1] (high-dose regimen), the “arousal threshold in response to ventilatory disturbance” value is recorded as “decreased”, the hypoxic burden estimate is at most 53 %*minutes/hour and the loop gain entry is “decreased”. Also, the “AHI LS mean” value in data set [1] (high-dose regimen of 30 ng/ml overnight) is “less than 30 events/hour”. Further, the “decrease in AHI” value in data set [1] (high-dose regimen of 30 ng/ml overnight, statistically and clinically significant) is listed as “approximately 9 events/hour”. For the same compound, the “pharyngeal collapsibility during sleep (Vpassive and Vactive)” value in data set [1] (high-dose regimen, OSA endotypes) is on record as “appeared to decrease”. For the same compound, in data set [1] (high-dose regimen, placebo-adjusted difference statistically significant), the hypoxic burden result is listed as “beneficial reduction in hypoxic burden”. For the same compound, in data set [1] (low-dose regimen), the hypoxic burden estimate is at most 53 %*minutes/hour.
Take `CC(C)(O)C(=O)N1CC(F)(F)[C@H](NS(C)(=O)=O)[C@@H]1Cc1cccc(-c2cc(F)cc(F)c2)c1F` [Compound C, N-{(2S,3R)-4,4-difluoro-1-(2-hydroxy-2-methylpropanoyl)-2-[(2,3′,5′-trifluoro[1,1′-biphenyl]-3-yl)methyl]pyrrolidin-3-yl}methanesulfonamide]: the “maximum plasma concentrations after intravenous administration compared with oral administration” value in data set [2] is reported as “similar”.
